Data taken from patent US20240269139A1, “COMPOUNDS FOR TARGETED PROTEIN DEGRADATION OF KINASES” (DANA-FARBER CANCER INSTITUTE, INC., priority 2020, published 2024).
Read-outs that look alike come from different tables or passages of the source.

Legend:
Format in all cases: cell-based
[1] = test system: protein kinases (human kinome); settings: for logFC GSK3B: experiment wp056; for logFC: CDK9 (P50750-2) protein abundance, degrader vs DMSO, down
From the text: (§1) Although development of targeted protein degraders requires a POI binder, among already-liganded proteins such as kinases, it was hypothesized that different targets would have a different propensity for current approaches to degrader-mediated destruction, which was termed ‘degradability’. […] It was rationalized that the probability of identifying the same kinase as a false positive in multiple treatments is low, therefore this analysis served to also assess the robustness of our data and subsequent interpretations. […] Overall, 62 protein kinases were degraded in more than 10 independent treatments, and remarkably, 9 of these (CDK4, AURKA, FER, WEE1, BLK. LIMK2, CDK6, GAK, LIMK1) were each degraded in at least 40 of the 154 independent treatments, emphasizing their predisposition to induced degradation (FIG. 1G; Appendix I).
(§2) Next, the frequency of degradation assessment was corrected for over-representation of molecules in the full dataset by omitting replicate profiling of compounds under different experimental conditions, to remove any bias. […] Unsurprisingly, the top degradable kinases mirror those from the previous analysis (CDK4, AURKA, FER, WEE1, BLK), confirming that in sufficiently large datasets, even with over-representation of certain molecules, frequency of degradation is a good measure of general tractability.

[2] = molecular target: protein kinases (human kinome) (Homo sapiens, UniProt Q9NSY1); settings: BMP2K Q9NSY1; experiment wp056
From the text: as §1, §2

[3] = molecular target: protein kinases (human kinome) (Homo sapiens, UniProt P49840); settings: GSK3A P49840; experiment wp056
From the text: as §1, §2

[4] = molecular target: protein kinases (human kinome) (Homo sapiens, UniProt Q2M2I8)
From the text: as §1, §2

[5] = molecular target: T1, protein kinases (human kinome) (Homo sapiens, UniProt O14965)
T1 sequence (O14965 1-403): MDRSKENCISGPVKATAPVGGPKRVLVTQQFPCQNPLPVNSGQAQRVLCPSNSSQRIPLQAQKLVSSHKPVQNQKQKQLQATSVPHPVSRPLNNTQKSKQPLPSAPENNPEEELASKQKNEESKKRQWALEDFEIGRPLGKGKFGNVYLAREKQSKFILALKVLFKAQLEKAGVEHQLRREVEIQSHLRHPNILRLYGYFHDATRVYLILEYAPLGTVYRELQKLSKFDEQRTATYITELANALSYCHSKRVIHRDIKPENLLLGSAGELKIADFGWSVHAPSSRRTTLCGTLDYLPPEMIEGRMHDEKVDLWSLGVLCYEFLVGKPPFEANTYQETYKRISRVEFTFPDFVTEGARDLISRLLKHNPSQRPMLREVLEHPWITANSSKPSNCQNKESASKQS
From the text: as §1, §2

[6] = molecular target: protein kinases (human kinome) (Homo sapiens, UniProt Q00537); settings: for logFC of CDK17: Accession Q00537; for logFC CDK17 (Q00537): direction of change down
From the text: as §1, §2

[7] = molecular target: protein kinases (human kinome) (Homo sapiens, UniProt P16591)
From the text: as §1, §2

[8] = molecular target: T2, protein kinases (human kinome) (Homo sapiens, UniProt Q08881); settings: experiment wp016
T2 sequence (Q08881 1-620): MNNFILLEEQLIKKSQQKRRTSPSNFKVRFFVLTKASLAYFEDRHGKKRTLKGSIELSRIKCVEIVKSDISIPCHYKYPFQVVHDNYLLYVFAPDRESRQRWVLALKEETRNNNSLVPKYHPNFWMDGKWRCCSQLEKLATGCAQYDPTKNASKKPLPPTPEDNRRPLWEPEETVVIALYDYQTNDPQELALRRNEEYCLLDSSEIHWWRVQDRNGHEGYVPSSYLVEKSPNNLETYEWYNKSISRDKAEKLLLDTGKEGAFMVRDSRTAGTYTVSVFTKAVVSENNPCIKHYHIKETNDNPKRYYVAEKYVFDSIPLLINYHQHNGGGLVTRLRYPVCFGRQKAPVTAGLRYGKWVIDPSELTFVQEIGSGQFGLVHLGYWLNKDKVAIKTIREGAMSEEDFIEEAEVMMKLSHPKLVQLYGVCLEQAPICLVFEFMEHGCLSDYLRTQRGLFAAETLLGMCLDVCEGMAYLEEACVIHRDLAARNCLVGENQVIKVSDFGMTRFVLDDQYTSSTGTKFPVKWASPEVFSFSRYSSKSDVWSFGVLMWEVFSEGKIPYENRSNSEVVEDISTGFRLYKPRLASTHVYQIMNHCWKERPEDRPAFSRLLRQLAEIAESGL
From the text: as §1, §2

[9] = molecular target: protein kinases (human kinome) (Homo sapiens, UniProt P51451)
From the text: as §1, §2

[10] = molecular target: protein kinases (human kinome) (Homo sapiens, UniProt P24941)
From the text: as §1, §2

[11] = molecular target: protein kinases (human kinome) (Homo sapiens, UniProt P30291); settings: experiment wp016
From the text: as §1, §2

[12] = molecular target: protein kinases (human kinome) (Homo sapiens, UniProt P53671); settings: experiment wp016
From the text: as §1, §2

[13] = molecular target: protein kinases (human kinome) (Homo sapiens, UniProt P50613); settings: for logFC: CDK7 (P50613) protein abundance, degrader vs DMSO, down; for logFC CDK7: CDK7 P50613
From the text: as §1, §2

[14] = molecular target: protein kinases (human kinome) (Homo sapiens, UniProt Q14289)
From the text: as §1, §2

[15] = molecular target: protein kinases (human kinome) (Homo sapiens, UniProt Q00535)
From the text: as §1, §2

[16] = molecular target: protein kinases (human kinome) (Homo sapiens, UniProt Q9NYV4)
From the text: as §1, §2

[17] = molecular target: protein kinases (human kinome) (Homo sapiens, UniProt P45984); settings: MAPK9 P45984-1; experiment wp146
From the text: as §1, §2

[18] = molecular target: protein kinases (human kinome) (Homo sapiens, UniProt P06493); settings: CDK1 P06493; experiment wp146
From the text: as §1, §2

[19] = experiment wp016, direction of change down
[20] = experiment wp146, direction of change down

Chain of protein kinases (human kinome) (Homo sapiens, UniProt Q2M2I8) (Q2M2I8 whole entry): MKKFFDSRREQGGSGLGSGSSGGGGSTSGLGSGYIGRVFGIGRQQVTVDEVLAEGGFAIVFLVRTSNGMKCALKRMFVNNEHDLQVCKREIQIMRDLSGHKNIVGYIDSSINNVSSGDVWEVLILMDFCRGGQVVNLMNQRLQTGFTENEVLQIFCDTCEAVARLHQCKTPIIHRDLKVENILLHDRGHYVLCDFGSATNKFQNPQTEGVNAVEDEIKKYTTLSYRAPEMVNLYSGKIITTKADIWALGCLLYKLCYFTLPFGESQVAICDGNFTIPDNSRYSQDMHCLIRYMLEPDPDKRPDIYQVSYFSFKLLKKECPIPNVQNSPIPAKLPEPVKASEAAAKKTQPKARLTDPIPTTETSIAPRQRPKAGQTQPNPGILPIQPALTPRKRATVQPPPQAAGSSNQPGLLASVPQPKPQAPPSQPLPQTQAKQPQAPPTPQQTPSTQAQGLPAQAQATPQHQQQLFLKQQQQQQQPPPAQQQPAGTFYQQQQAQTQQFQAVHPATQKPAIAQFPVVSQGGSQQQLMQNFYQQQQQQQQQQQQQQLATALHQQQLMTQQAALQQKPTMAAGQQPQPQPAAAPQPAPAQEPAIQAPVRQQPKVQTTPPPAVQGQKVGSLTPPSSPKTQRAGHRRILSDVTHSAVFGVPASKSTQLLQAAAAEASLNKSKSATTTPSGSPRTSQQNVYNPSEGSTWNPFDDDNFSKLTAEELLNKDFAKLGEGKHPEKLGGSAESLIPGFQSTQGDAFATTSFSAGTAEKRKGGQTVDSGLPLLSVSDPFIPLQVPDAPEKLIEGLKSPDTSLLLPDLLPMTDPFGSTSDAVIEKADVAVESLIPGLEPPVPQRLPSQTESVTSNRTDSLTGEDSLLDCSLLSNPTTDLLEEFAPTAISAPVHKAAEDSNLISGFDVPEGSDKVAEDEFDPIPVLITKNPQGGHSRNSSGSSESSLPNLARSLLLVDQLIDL
Chain of protein kinases (human kinome) (Homo sapiens, UniProt Q00535) (Q00535 whole entry): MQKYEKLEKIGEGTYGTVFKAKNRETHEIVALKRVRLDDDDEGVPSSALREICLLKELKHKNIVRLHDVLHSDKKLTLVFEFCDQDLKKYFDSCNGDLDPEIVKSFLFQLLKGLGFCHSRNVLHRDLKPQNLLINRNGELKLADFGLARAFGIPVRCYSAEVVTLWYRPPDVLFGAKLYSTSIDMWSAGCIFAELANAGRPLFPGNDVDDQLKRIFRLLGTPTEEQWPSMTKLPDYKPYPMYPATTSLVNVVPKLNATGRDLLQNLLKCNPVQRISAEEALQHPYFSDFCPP
Chain of protein kinases (human kinome) (Homo sapiens, UniProt P50613) (P50613 whole entry): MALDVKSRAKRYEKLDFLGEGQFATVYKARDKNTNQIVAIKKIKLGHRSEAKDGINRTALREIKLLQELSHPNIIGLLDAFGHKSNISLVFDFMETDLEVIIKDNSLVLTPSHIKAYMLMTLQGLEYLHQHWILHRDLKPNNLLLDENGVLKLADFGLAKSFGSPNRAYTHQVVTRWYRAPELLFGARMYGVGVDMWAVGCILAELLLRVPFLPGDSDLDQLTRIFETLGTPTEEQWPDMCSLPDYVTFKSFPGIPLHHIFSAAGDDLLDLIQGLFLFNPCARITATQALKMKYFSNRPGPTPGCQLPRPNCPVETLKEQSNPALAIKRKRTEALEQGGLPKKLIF
Chain of protein kinases (human kinome) (Homo sapiens, UniProt Q00537) (Q00537 whole entry): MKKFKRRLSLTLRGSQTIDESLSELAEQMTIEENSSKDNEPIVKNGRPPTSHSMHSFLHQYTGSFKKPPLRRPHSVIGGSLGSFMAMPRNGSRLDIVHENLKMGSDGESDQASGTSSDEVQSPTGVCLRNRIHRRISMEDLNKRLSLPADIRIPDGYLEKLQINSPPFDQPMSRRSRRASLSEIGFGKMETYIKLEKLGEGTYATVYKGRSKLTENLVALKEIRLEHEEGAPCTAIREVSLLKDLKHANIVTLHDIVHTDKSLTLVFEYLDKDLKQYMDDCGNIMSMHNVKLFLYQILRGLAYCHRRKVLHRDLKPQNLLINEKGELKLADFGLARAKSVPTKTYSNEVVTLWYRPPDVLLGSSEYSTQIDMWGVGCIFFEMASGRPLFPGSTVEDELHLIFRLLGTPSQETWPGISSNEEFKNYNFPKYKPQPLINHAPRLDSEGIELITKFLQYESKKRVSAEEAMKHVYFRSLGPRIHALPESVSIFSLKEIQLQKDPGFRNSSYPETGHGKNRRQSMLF
Chain of protein kinases (human kinome) (Homo sapiens, UniProt Q9NYV4) (Q9NYV4 whole entry): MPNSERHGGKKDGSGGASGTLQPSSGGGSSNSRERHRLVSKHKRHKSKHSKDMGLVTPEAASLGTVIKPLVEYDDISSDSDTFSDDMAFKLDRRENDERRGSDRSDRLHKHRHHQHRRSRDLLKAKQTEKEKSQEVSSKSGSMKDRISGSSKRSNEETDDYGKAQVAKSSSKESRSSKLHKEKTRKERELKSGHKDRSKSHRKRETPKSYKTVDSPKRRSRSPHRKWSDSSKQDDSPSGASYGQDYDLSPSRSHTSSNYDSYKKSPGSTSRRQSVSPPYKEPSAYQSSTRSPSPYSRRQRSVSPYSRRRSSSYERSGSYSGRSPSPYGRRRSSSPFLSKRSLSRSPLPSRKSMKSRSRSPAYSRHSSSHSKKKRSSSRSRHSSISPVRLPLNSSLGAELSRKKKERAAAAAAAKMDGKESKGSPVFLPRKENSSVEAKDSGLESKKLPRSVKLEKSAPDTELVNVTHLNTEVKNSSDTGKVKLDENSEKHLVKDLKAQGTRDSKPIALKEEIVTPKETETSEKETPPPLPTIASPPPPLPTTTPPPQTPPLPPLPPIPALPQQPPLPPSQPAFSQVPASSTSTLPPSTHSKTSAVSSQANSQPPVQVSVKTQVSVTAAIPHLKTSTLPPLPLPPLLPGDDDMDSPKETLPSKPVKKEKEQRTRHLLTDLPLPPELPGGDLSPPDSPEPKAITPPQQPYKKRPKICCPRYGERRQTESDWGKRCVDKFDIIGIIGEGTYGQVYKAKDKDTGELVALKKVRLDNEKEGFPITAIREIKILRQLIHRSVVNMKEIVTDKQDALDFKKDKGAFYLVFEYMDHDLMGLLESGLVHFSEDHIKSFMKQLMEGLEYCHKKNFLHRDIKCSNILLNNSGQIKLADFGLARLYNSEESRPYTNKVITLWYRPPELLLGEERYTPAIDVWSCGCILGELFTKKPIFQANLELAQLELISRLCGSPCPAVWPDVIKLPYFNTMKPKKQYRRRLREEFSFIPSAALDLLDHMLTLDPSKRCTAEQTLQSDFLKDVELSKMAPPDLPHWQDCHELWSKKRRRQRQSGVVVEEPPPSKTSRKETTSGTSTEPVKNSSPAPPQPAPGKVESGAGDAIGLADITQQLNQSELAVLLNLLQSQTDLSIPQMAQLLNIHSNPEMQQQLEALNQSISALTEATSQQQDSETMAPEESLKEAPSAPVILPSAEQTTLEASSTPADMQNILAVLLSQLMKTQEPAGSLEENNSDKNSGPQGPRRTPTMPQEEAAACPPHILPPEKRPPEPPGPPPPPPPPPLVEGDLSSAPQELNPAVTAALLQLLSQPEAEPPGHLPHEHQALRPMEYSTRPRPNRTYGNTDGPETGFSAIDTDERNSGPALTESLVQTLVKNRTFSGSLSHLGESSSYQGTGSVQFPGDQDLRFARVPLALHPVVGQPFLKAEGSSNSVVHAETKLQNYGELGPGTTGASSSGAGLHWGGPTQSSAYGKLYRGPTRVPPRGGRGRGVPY
Chain of protein kinases (human kinome) (Homo sapiens, UniProt Q14289) (Q14289 whole entry): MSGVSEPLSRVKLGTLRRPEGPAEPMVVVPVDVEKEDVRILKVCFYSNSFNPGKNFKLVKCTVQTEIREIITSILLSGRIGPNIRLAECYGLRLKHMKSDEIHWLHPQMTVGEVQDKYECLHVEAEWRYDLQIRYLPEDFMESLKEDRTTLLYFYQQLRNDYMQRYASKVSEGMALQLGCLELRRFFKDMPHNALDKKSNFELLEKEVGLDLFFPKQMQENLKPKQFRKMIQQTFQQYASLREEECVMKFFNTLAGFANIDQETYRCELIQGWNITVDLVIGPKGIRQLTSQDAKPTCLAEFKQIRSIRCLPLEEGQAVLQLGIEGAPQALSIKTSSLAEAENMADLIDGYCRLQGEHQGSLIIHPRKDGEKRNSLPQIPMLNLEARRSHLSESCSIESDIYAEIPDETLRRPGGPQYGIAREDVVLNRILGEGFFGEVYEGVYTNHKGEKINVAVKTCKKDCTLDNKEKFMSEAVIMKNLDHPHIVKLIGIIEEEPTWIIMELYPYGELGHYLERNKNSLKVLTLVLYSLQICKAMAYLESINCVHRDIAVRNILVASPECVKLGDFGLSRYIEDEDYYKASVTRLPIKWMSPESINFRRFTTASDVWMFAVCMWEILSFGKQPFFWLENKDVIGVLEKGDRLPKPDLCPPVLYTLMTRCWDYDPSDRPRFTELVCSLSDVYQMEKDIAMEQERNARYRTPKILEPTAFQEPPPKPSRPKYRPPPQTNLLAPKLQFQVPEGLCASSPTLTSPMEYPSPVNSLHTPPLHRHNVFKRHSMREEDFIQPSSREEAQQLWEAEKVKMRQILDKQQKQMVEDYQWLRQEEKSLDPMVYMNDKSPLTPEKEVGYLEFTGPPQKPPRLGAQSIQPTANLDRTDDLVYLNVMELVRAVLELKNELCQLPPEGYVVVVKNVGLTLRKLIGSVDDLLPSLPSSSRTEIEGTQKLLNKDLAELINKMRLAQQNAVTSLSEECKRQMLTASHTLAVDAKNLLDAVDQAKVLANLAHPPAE
Chain of protein kinases (human kinome) (Homo sapiens, UniProt P06493) (P06493 whole entry): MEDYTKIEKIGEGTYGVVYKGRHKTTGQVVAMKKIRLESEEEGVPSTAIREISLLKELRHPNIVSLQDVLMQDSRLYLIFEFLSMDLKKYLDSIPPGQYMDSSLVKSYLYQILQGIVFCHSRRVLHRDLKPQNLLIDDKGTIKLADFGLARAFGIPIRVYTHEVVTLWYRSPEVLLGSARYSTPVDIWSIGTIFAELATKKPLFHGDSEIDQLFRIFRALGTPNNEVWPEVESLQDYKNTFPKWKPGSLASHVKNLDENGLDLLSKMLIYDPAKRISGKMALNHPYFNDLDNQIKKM

N#CCc1ccc(Nc2nc(NCCCNC(=O)CCCCCCNC(=O)COc3cccc4c3C(=O)N(C3CCC(=O)NC3=O)C4=O)cc(Nc3cc(C4CC4)n[nH]3)n2)cc1 (centres unmarked) [SB1.G.190]
logFC GSK3B ([1]; Accession P49841-2, direction down): −0.631
logFC GSK3B ([1]; GSK3B P49841-2): −0.631
logFC [2]: −0.3508
logFC BMP2K [2]: −0.3508
logFC [3]: −0.8894
logFC GSK3A [3]: −0.8894
logFC AAK1 ([4]; AAK1 (Q2M218-1), experiment wp056, down): −1.489
logFC AAK1 ([4]; AAK1, accession Q2M218-1, experiment wp056, direction of change down): −1.489
logFC AURKA (O14965) ([5]; experiment wp056): −0.843

CC(C)S(=O)(=O)c1ccccc1Nc1nc(Nc2ccc(N3CCN(CCOCCOCCOCCNC(=O)CNc4cccc5c4C(=O)N(C4CCC(=O)NC4=O)C5=O)CC3)cc2)ncc1Cl (centres unmarked) [SK.3.87]
logFC of CDK17 ([6]; experiment wp016): −0.6139
logFC CDK17 (Q00537) ([6]; experiment wp016): −0.6139
logFC of FER (P16591-1) ([7]; Experiment wp016, down): −1.97
logFC of FER ([7]; FER P16591-1, experiment wp016): −1.97
logFC ITK (Q08881) [8]: −1.868
logFC ITK (Q08881) ([8]; direction of change down): −1.868
logFC of BLK ([9]; BLK P51451, experiment wp016): −0.9329
logFC of BLK (P51451) ([9]; Experiment wp016, down): −0.9329
logFC [1]: −0.4714
logFC LCK ([1]; LCK, accession P06239-3, experiment wp016, direction of change down): −0.3484
logFC CDK9 (P50750-2) ([1]; experiment wp016): −0.4714
logFC LCK (P06239-3) [1, 19]: −0.3484
logFC AAK1 ([4]; AAK1 (Q2M218-1), experiment wp016, down): −0.7307
logFC AAK1 ([4]; AAK1, accession Q2M218-1, experiment wp016, direction of change down): −0.7307
logFC CDK2 (P24941-1) ([10]; experiment wp016): −0.3797
logFC CDK2 (P24941-1) [10, 19]: −0.3797
logFC WEE1 (P30291-1) [11]: −0.9273
logFC LIMK2 ([12]; LIMK2 (P53671), down): −0.378
logFC of LIMK2 ([12]; LIMK2 P53671): −0.378
logFC [13]: −0.5325
logFC CDK7 ([13]; experiment wp016): −0.5325
logFC ([14]; PTK2B (Q14289-1) protein abundance, degrader vs DMSO, down): −3.217
logFC PTK2B ([14]; PTK2B, accession Q14289-1, experiment wp016, direction of change down): −3.217
logFC of CDK5 ([15]; Accession Q00535, experiment wp016): −0.5732
logFC CDK5 (Q00535) [15, 19]: −0.5732
logFC CDK12 ([16]; Accession Q9NYV4-1, experiment wp016): −0.5073
logFC CDK12 ([16]; CDK12 (Q9NYV4-1), experiment wp016): −0.5073
logFC AURKA (O14965) ([5]; experiment wp016): −1.381

NC(=O)c1c(F)cccc1Nc1nc(NC2CCN(S(=O)(=O)CCNC(=O)CCCCCCCCOc3cccc4c3C(=O)N(C3CCC(=O)NC3=O)C4=O)CC2)ncc1Br (centres unmarked) [TMX.01.160]
logFC of CDK17 ([6]; experiment wp146): −1.627
logFC CDK17 (Q00537) ([6]; experiment wp146): −1.627
logFC [17]: −3.32
logFC MAPK9 [17]: −3.32
logFC [1]: −1.181
logFC MAPK8 (P45983-4) ([1]; Experiment wp146, direction down): −2.112
logFC MAPK8 ([1]; MAPK8 P45983-4, experiment wp146): −2.112
logFC RPS6KA1 ([1]; RPS6KA1 (Q15418-2), experiment wp146): −0.4317
logFC CDK9 (P50750-2) ([1]; experiment wp146): −1.181
logFC CDK16 (Q00536-2) ([1]; experiment wp146): −1.11
logFC RPS6KA1 (Q15418-2) ([1]; experiment wp146): −0.4317
logFC [18]: −1.423
logFC CDK1 [18]: −1.423
logFC CDK2 (P24941-1) ([10]; experiment wp146): −1.971
logFC CDK2 (P24941-1) [10, 20]: −1.971
logFC [13]: −0.601
logFC CDK7 ([13]; experiment wp146): −0.601
logFC CDK5 (Q00535) ([15]; experiment wp146): −2.901
logFC CDK5 (Q00535) [15, 20]: −2.901
logFC CDK12 ([16]; Accession Q9NYV4-1, experiment wp146): −0.5118
logFC CDK12 ([16]; CDK12 (Q9NYV4-1), experiment wp146): −0.5118
logFC AURKA (O14965) ([5]; experiment wp146): −2.621
